Assay results as given in US20260028365A1 (BIOGEN MA INC., priority 2022, published 2026).
Where two headings read alike, the source gives them in different places.

Biological target: Tyk2 (Homo sapiens (Human), UniProt P29597)
Assay: pSTAT4 Cell Assay (MSD, NK92 cells)
Assay type: cell-based
Method: The inhibitory potency of compounds of the disclosure against the Tyk2 kinase activity on STAT4 was evaluated using an MSD-platform plate-based assay format. NK92 cells natively expressing STAT4 and Tyk2 were serum-starved to reduce background phosphorylation levels, then cells were treated compounds for 1 hr with a 10-point four-fold dilution series starting at 10 μM. Cells were then stimulated with 30 ng/mL […] for 15 minutes. […] The data were normalized and the percent activity versus log concentration of compound were fitted with a 4-parameter logistic model to generate to generate IC50 curves.

Chain of Tyk2 (P29597 whole entry): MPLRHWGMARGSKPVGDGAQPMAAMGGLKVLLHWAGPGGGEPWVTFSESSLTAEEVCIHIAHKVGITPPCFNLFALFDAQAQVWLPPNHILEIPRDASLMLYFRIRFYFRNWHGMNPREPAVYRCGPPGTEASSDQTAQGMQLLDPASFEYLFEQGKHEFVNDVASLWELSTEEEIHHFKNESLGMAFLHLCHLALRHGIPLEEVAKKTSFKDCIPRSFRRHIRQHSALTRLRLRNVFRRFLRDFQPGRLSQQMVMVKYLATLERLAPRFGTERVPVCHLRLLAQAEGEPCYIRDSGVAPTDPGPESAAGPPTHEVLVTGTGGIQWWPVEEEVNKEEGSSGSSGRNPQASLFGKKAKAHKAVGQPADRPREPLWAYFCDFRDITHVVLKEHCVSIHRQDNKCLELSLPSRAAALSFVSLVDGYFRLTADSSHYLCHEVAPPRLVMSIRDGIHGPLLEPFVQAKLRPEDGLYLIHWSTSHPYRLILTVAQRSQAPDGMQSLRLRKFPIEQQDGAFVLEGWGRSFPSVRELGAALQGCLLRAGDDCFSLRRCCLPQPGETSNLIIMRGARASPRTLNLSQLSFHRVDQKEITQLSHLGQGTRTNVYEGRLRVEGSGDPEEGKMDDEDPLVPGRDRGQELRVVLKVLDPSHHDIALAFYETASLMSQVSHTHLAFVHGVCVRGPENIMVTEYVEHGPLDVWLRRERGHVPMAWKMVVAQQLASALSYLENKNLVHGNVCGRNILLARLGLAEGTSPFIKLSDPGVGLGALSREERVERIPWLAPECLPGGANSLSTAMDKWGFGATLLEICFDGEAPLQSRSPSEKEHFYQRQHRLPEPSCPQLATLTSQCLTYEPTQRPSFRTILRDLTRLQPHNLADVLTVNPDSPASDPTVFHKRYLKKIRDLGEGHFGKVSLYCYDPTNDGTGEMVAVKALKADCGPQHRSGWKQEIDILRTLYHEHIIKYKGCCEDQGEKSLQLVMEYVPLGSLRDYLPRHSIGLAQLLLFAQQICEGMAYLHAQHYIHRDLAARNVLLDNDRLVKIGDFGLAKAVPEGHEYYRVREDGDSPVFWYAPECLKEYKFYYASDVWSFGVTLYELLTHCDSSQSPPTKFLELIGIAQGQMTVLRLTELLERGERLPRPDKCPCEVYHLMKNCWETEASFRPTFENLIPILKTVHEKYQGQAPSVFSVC

Compound	IC50 (MSD) [nM]	IC50 [nM]
CC(=O)Nc1cc(Nc2cc(C)nc(C34COC(C3)C4)n2)c(-c2ccc(N3CCOCC3)cn2)cn1 [Example 574, N-(4′-((2-(2-oxabicyclo[2.1.1]hexan-4-yl)-6-methylpyrimidin-4-yl)amino)-5-morpholinO[2,3′-bipyridin]-6′-yl)acetamide]	≤ 10	
COCc1ccc(-c2cnc(NC(C)=O)cc2Nc2nc(C(C)(F)F)ncc2OC)nc1 [Example 589, N-(4′-((2-(1,1-difluoroethyl)-5-methoxypyrimidin-4-yl)amino)-5-(methoxymethyl)-[2,3′-bipyridin]-6′-yl)acetamide]	≤ 10	
COc1cnc(C(C)(F)F)nc1Nc1cc(NC(C)=O)ncc1-c1ccn(C)n1 [Example 590, N-(4-((2-(1,1-difluoroethyl)-5-methoxypyrimidin-4-yl)amino)-5-(1-methyl-1H-pyrazol-3-yl)pyridin-2-yl)acetamide]	10 to 100	
COc1nc(-c2cnc(NC(C)=O)cc2Nc2cc(C)nc(C(C)(F)F)n2)nn1C [Example 609, N-(4-((2-(1,1-difluoroethyl)-6-methylpyrimidin-4-yl)amino)-5-(5-methoxy-1-methyl-1H-1,2,4-triazol-3-yl)pyridin-2-yl)acetamide]	100 to 1000	
CC(=O)Nc1cc(Nc2cc(C)nc(C(C)(F)F)n2)c(-c2nn(C)cc2F)cn1 [Example 616, N-(4-((2-(1,1-difluoroethyl)-6-methylpyrimidin-4-yl)amino)-5-(4-fluorO1-methyl-1H-pyrazol-3-yl)pyridin-2-yl)acetamide]	10 to 100	
CC(=O)Nc1cc(Nc2cc(C)nc(C(C)(F)F)n2)c(-c2ccnc(N(C)C)n2)cn1 [Example 629, N-(4-((2-(1,1-difluoroethyl)-6-methylpyrimidin-4-yl)amino)-5-(2-(dimethylamino)pyrimidin-4-yl)pyridin-2-yl)acetamide]	≤ 10	
CC(=O)Nc1cc(Nc2cc(C)nc(C(C)(F)F)n2)c(-c2cccc(C3CCCO3)n2)cn1 (stereo not drawn) [Example 639, N-(4′-((2-(1,1-difluoroethyl)-6-methylpyrimidin-4-yl)amino)-6-(tetrahydrofuran-2-yl)-[2,3′-bipyridin]-6′-yl)acetamide]	≤ 10	
CC(=O)Nc1cc(Nc2ccnc(C(C)(F)F)n2)c(-c2cccc(C(C)(C)C#N)n2)cn1 [Example 653, N-(6-(2-cyanopropan-2-yl)-4′-((2-(1,1-difluoroethyl)pyrimidin-4-yl)amino)-[2,3′-bipyridin]-6′-yl)acetamide]	10 to 100	
COc1ccnc(-c2cnc(NC(C)=O)cc2Nc2cc(C)nc(C(C)(F)F)n2)n1 [Example 658, N-(4-((2-(1,1-difluoroethyl)-6-methylpyrimidin-4-yl)amino)-5-(4-methoxypyrimidin-2-yl)pyridin-2-yl)acetamide]	≥ 1000	
COc1nc(-c2cnc(NC(C)=O)cc2Nc2cc(C)nc(C(C)(F)F)n2)ncc1F [Example 659, N-(4-((2-(1,1-difluoroethyl)-6-methylpyrimidin-4-yl)amino)-5-(5-fluorO4-methoxypyrimidin-2-yl)pyridin-2-yl)acetamide]	≥ 1000	
COCCc1cncc(-c2cnc(NC(C)=O)cc2Nc2cc(C)nc(C(C)(F)F)n2)n1 [Example 664, N-(4-((2-(1,1-difluoroethyl)-6-methylpyrimidin-4-yl)amino)-5-(6-(2-methoxyethyl)pyrazin-2-yl)pyridin-2-yl)acetamide]	10 to 100	
CC(=O)Nc1cc(Nc2cc(C)nc(C(C)(F)F)n2)c(-c2nccc(N3CCOCC3)n2)cn1 [Example 674, N-(4-((2-(1,1-difluoroethyl)-6-methylpyrimidin-4-yl)amino)-5-(4-morpholinopyrimidin-2-yl)pyridin-2-yl)acetamide]	≥ 1000	
CC(=O)Nc1cc(Nc2cc(C)nc(C(C)(F)F)n2)c(-c2ncc3c(n2)COC3)cn1 [Example 678, N-(4-((2-(1,1-difluoroethyl)-6-methylpyrimidin-4-yl)amino)-5-(5,7-dihydrofuro[3,4-d]pyrimidin-2-yl)pyridin-2-yl)acetamide]	10 to 100	
CC(=O)Nc1cc(Nc2cc(C)nc(C(C)(F)F)n2)c(-c2ccc3c(n2)CCOC3)cn1 [Example 679, N-(4-((2-(1,1-difluoroethyl)-6-methylpyrimidin-4-yl)amino)-5-(7,8-dihydrO5H-pyrano[4,3-b]pyridin-2-yl)pyridin-2-yl)acetamide]	≤ 10	
CC(=O)Nc1cc(Nc2cc(C)nc(C(C)(F)F)n2)c(C2=NC3C(=O)OCC3C=N2)cn1 (stereo not drawn) [Example 682, N-(4-((2-(1,1-difluoroethyl)-6-methylpyrimidin-4-yl)amino)-5-(7-oxO4a,5,7,7a-tetrahydrofuro[3,4-d]pyrimidin-2-yl)pyridin-2-yl)acetamide]	≤ 10	
CC(=O)Nc1cc(Nc2cc(C)nc(C(C)(F)F)n2)c(-c2cc3n(n2)CCN(C)C3C)cn1 (stereo not drawn) [Example 683, N-(4-((2-(1,1-difluoroethyl)-6-methylpyrimidin-4-yl)amino)-5-(4,5-dimethyl-4,5,6,7-tetrahydropyrazolo[1,5-a]pyrazin-2-yl)pyridin-2-yl)acetamide]	≤ 10	
CC(=O)Nc1cc(Nc2cc(C)nc(C(C)(F)F)n2)c(-c2nc3c(s2)CN(C)C3)cn1 [Example 684, N-(4-((2-(1,1-difluoroethyl)-6-methylpyrimidin-4-yl)amino)-5-(5-methyl-5,6-dihydrO4H-pyrrolo[3,4-d]thiazol-2-yl)pyridin-2-yl)acetamide]	≤ 10	
CC(=O)Nc1cc(Nc2ccnc(C(C)(F)F)n2)c(-c2cnc(C)cn2)cn1 [Example 693, N-(4-((2-(1,1-difluoroethyl)pyrimidin-4-yl)amino)-5-(5-methylpyrazin-2-yl)pyridin-2-yl)acetamide]	10 to 100	
CCc1cc(Nc2cc(NC(C)=O)ncc2-c2cc3n(n2)CCN(C)C3)nc(C(C)(F)F)n1 [Example 721, N-(4-((2-(1,1-difluoroethyl)-6-ethylpyrimidin-4-yl)amino)-5-(5-methyl-4,5,6,7-tetrahydropyrazolo[1,5-a]pyrazin-2-yl)pyridin-2-yl)acetamide]	≤ 10	
CN1CCc2sc(-c3cnc(NC=O)cc3Nc3ccnc(C(C)(F)F)n3)nc2C1 [Example 796, N-(4-((2-(1,1-difluoroethyl)pyrimidin-4-yl)amino)-5-(5-methyl-4,5,6,7-tetrahydrothiazolo[4,5-c]pyridin-2-yl)pyridin-2-yl)formamide]		10 to 100
CC(=O)Nc1cc(Nc2cc(C)nc(C(C)(F)F)n2)c(-c2ccn(C(F)F)n2)cn1 [Example 811, N-(4-((2-(1,1-difluoroethyl)-6-methylpyrimidin-4-yl)amino)-5-(1-(difluoromethyl)-1H-pyrazol-3-yl)pyridin-2-yl)acetamide]		10 to 100
CC(=O)Nc1cc(Nc2ccnc(C(C)(F)F)n2)c(-c2cnc(OC(F)F)cn2)cn1 [Example 854, N-(4-((2-(1,1-difluoroethyl)pyrimidin-4-yl)amino)-5-(5-(difluoromethoxy)pyrazin-2-yl)pyridin-2-yl)acetamide]		10 to 100
CCc1cc(Nc2cc(NC(C)=O)ncc2-c2cnc(CN3CCOCC3)cn2)nc(C(C)(F)F)n1 [Example 899, N-(4-((2-(1,1-difluoroethyl)-6-ethylpyrimidin-4-yl)amino)-5-(5-(morpholinomethyl)pyrazin-2-yl)pyridin-2-yl)acetamide]		10 to 100
CCc1cc(Nc2cc(NC(C)=O)ncc2-c2ccc(CN3CCCC3)cn2)nc(C(C)(F)F)n1 [Example 901, N-(4′-((2-(1,1-difluoroethyl)-6-ethylpyrimidin-4-yl)amino)-5-(pyrrolidin-1-ylmethyl)-[2,3′-bipyridin]-6′-yl)acetamide]		≤ 10
CCc1cc(Nc2cc(NC(C)=O)ncc2-c2ccc(CN3C[C@@H]4C[C@H]3CO4)cn2)nc(C(C)(F)F)n1 [Example 902, N-(5-(((1S,4S)-2-oxa-5-azabicyclo[2.2.1]heptan-5-yl)methyl)-4′-((2-(1,1-difluoroethyl)-6-ethylpyrimidin-4-yl)amino)-[2,3′-bipyridin]-6′-yl)acetamide]		≤ 10
CCc1cc(Nc2cc(NC(C)=O)ncc2-c2ncc(CN3CCCC3)cn2)nc(C(C)(F)F)n1 [Example 903, N-(4-((2-(1,1-difluoroethyl)-6-ethylpyrimidin-4-yl)amino)-5-(5-(pyrrolidin-1-ylmethyl)pyrimidin-2-yl)pyridin-2-yl)acetamide]		100 to 1000
CCc1cc(Nc2cc(NC(C)=O)ncc2-c2ncc(CN3CCCC3)cc2F)nc(C(C)(F)F)n1 [Example 904, N-(4′-((2-(1,1-difluoroethyl)-6-ethylpyrimidin-4-yl)amino)-3-fluoro-5-(pyrrolidin-1-ylmethyl)-[2,3′-bipyridin]-6′-yl)acetamide]		≤ 10
CCc1cc(Nc2cc(NC(C)=O)ncc2-c2cc(CN3C[C@@H]4C[C@H]3CO4)ncn2)nc(C(C)(F)F)n1 [Example 905, N-(5-(6-(((1S,4S)-2-oxa-5-azabicyclo[2.2.1]heptan-5-yl)methyl)pyrimidin-4-yl)-4-((2-(1,1-difluoroethyl)-6-ethylpyrimidin-4-yl)amino)pyridin-2-yl)acetamide]		10 to 100
CCc1cc(Nc2cc(NC(C)=O)ncc2-c2ccc(F)c(CN3C[C@@H]4C[C@H]3CO4)n2)nc(C(C)(F)F)n1 [Example 906, N-(6-(((1S,4S)-2-oxa-5-azabicyclo[2.2.1]heptan-5-yl)methyl)-4′-((2-(1,1-difluoroethyl)-6-ethylpyrimidin-4-yl)amino)-5-fluoro-[2,3′-bipyridin]-6′-yl)acetamide]		≤ 10
CCc1cc(Nc2cc(NC(C)=O)ncc2-c2nccc(CN3C[C@H]4C[C@@H]3CO4)n2)nc(C(C)(F)F)n1 [Example 907, N-(5-(4-(((1R,4R)-2-oxa-5-azabicyclo[2.2.1]heptan-5-yl)methyl)pyrimidin-2-yl)-4-((2-(1,1-difluoroethyl)-6-ethylpyrimidin-4-yl)amino)pyridin-2-yl)acetamide]		10 to 100
